Reference: ChEMBL document CHEMBL1201862, “PubChem BioAssay data set” (2004)
Activity calls are given as the source filed them.

Key:
[1] = C. albicans growth with fluconazole, confirmation, fluorescence, retest (AID 2467); assay type: functional, cell-based
[2] = target: ATP-dependent molecular chaperone HSP82 (Candida albicans (strain WO-1) (Yeast), UniProt C4YTQ8); experiment: loss of DOC-induced GRE-beta-galactosidase reporter signal, dose response, Hsp90 inhibitor project, S. cerevisiae, luminescence (AID 2400); assay type: functional, cell-based;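 note: beta-galactosidase luminescence from glucocorticoid response element reporter as proxy for Hsp90 function; inhibitor potency where signal loss means Hsp90 inhibition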
Chain of ATP-dependent molecular chaperone HSP82 (C4YTQ8 whole entry): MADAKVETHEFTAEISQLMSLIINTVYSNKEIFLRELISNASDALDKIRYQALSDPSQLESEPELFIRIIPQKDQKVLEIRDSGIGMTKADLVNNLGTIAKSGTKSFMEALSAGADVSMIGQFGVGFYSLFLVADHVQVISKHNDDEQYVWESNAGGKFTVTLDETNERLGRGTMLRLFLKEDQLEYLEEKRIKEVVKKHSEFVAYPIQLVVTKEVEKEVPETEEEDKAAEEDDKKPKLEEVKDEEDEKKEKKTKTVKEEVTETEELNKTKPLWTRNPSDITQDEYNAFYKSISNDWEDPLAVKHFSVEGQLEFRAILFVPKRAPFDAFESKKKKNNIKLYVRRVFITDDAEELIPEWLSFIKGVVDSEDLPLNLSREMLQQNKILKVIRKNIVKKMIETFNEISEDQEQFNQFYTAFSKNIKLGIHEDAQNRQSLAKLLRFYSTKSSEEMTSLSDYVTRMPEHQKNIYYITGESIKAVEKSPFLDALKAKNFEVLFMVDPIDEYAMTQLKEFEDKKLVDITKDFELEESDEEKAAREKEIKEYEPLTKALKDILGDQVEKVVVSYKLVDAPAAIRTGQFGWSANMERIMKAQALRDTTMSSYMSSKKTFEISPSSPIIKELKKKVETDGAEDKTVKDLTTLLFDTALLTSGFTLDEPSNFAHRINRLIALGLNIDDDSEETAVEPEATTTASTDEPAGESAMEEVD

[3] = target: T1, Serine/threonine-protein phosphatase (Candida dubliniensis (strain CD36 / CBS 7987 / NCPF 3949 / NRRLY-17841) (Yeast), UniProt B9W6M3); experiment: Fluorescence Cell-Based Secondary Assay to Identify Inhibitors of Calcineurin. [Related pubchem assays (depositor defined):AID1979, AID2007]; assay type: functional
T1 sequence (B9W6M3 whole entry): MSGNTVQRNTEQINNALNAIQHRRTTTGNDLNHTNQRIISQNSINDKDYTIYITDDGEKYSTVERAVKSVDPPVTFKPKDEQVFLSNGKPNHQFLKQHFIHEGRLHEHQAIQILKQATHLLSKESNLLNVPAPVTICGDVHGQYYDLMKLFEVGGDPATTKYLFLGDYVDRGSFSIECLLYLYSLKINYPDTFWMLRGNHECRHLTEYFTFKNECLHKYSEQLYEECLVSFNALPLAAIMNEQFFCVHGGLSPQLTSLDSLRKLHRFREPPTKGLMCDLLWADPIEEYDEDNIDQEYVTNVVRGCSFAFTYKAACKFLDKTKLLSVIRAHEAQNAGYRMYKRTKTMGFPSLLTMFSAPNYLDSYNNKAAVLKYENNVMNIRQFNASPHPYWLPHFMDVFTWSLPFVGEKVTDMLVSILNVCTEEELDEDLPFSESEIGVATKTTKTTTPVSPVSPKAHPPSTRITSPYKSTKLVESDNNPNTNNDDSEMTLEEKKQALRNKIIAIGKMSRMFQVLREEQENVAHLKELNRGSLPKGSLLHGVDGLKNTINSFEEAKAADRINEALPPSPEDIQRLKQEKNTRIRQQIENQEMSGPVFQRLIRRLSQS

[4] = NIH-3T3 fibroblast cytotoxicity, dose response, cytotoxicity control, cell-based, fluorescence, Alamar Blue, secondary assay (AID 2327); assay type: functional;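 note: NIH-3T3 mouse fibroblasts cultured with fluconazole at 8 µg/mL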
[5] = target: T1, Serine/threonine-protein phosphatase; experiment: calcineurin pathway inhibitors in yeast reporter, dose response, S. cerevisiae, CDRE-lacZ, luminescence, secondary (AID 2388); assay type: functional, cell-based;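 note: yeast reporter cells carrying a calcineurin-responsive lacZ construct stimulated with calcium chloride; luminescent beta-galactosidase reporter signal in whole cells rather than isolated phosphatase activity; potency for inhibition where a drop in reporter signal means calcineurin blockade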
[6] = target: T2, CAAX prenyl protease 2 (Homo sapiens, UniProt Q9Y256); experiment: human Rce1 protease inhibitors, dose response, biochemical, yeast membranes, quenched-peptide fluorescence, cherry-pick (AID 588849)
T2 sequence (Q9Y256 whole entry): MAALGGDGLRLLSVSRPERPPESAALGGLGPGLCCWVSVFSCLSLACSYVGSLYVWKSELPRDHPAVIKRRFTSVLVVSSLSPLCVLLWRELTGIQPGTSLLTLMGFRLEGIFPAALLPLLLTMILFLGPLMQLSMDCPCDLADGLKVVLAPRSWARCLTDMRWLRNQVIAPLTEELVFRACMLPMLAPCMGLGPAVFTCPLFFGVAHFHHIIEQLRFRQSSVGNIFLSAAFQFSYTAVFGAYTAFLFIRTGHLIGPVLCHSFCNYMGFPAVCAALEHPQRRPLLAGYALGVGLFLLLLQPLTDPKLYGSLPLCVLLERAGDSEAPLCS

[7] = target: T3, Protein skinhead-1 (Caenorhabditis elegans, UniProt P34707); assay type: functional
T3 sequence (P34707 whole entry): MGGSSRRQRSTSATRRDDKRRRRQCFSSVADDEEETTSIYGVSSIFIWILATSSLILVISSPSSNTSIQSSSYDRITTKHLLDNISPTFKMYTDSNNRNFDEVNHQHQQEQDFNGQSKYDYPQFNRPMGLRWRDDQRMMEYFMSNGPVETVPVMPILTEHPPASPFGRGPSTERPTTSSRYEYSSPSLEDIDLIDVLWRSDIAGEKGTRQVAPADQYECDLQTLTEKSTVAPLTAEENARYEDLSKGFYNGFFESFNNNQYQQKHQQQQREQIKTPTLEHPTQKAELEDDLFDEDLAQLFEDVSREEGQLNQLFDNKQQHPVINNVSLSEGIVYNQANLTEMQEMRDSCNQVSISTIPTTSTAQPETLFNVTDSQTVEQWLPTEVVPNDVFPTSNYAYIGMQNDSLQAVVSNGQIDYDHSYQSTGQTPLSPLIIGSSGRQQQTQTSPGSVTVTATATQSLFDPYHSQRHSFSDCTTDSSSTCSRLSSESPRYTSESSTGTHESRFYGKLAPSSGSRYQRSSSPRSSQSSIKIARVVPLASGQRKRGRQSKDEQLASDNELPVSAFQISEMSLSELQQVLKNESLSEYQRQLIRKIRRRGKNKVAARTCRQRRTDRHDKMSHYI

[8] = target: Cytochrome P450 2D6 (Homo sapiens, UniProt P10635);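 note: CYP2D6 member of a cytochrome P450 panel assay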
Chain of Cytochrome P450 2D6 (P10635 whole entry): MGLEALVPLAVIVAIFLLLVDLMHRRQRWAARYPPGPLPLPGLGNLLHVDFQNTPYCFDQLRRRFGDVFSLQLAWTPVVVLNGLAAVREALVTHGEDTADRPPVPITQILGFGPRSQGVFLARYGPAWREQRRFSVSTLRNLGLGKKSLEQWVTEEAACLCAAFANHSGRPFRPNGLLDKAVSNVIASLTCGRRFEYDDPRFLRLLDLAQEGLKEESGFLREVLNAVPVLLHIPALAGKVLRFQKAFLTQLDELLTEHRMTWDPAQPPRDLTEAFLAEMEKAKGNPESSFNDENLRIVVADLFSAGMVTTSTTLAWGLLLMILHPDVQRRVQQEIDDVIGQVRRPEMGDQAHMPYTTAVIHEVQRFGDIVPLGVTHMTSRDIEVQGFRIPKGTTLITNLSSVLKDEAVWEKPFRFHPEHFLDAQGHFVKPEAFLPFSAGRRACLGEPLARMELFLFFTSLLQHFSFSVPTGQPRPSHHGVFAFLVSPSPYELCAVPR

[9] = target: Cytochrome P450 3A4 (Homo sapiens, UniProt P08684);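 note: CYP3A4 tested as one member of a cytochrome P450 panel screen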
Chain of Cytochrome P450 3A4 (P08684 whole entry): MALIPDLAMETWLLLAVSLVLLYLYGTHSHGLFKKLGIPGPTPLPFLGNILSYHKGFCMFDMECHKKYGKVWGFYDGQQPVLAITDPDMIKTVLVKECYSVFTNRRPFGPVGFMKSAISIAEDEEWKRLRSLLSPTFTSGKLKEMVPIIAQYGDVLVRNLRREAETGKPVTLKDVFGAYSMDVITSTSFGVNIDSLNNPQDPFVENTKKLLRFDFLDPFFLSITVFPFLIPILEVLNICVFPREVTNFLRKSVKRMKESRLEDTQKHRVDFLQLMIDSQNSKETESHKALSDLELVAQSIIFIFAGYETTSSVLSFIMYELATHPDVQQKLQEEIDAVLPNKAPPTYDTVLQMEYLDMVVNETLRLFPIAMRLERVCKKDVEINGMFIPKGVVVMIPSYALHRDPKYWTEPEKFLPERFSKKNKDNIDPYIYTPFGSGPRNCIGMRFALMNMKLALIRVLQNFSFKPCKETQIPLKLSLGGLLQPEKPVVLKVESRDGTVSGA

[10] = target: Cytochrome P450 2C19 (Homo sapiens, UniProt P33261); experiment: Cytochrome panel assay with activity outcomes. Panel member name: p450-cyp2c19 Compounds with AC50 equal or less than 10 uM are considered active; assay type: functional; details: read-out: AC50
Chain of Cytochrome P450 2C19 (P33261 whole entry): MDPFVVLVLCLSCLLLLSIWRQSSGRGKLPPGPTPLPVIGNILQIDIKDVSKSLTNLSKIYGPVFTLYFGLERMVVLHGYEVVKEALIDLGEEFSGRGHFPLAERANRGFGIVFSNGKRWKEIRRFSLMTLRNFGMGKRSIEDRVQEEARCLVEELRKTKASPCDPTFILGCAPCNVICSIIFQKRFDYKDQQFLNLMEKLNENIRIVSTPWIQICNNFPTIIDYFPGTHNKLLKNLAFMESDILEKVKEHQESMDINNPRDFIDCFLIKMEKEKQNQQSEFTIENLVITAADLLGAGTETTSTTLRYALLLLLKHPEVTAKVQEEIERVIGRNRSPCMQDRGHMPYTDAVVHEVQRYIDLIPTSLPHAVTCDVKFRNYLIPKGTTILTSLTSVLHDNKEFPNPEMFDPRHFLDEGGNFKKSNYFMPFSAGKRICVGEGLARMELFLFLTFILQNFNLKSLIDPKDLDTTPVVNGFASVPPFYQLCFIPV

[11] = target: UDP-galactopyranose mutase (Mycobacterium tuberculosis, UniProt P9WIQ1); experiment: Inhibitors of Mycobacterium tuberculosis UDP-galactopyranose mutase (UGM) enzyme Measured in Biochemical System Using Plate Reader - 2105-02_Inhibitor_Dose_CherryPick_Activity. [Related pubchem assays (depositor defined):AID504439]
Chain of UDP-galactopyranose mutase (P9WIQ1 whole entry): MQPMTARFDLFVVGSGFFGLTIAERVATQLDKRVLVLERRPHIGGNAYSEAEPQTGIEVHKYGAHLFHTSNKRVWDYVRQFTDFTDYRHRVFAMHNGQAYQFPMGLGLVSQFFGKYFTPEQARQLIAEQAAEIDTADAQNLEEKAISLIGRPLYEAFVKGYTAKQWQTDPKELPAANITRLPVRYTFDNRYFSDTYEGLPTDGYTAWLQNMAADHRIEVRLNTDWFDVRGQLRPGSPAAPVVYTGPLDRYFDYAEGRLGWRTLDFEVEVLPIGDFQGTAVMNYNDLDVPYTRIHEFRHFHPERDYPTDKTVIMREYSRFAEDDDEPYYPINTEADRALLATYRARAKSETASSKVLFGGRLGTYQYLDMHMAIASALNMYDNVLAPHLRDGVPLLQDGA

[12] = growth induction of Burl-1 ts yeast mutant, dose response, counter-screen for SUMOylation pathway inhibitor project, whole organism, S. cerevisiae, luminescence (AID 463199); assay type: functional
[13] = target: CAAX prenyl protease 1 (Saccharomyces cerevisiae S288c, UniProt P47154); experiment: Ste24 protease inhibitors, dose response, biochemical, S. cerevisiae, plate reader, cherry-pick (AID 488815)
Chain of CAAX prenyl protease 1 (P47154 whole entry): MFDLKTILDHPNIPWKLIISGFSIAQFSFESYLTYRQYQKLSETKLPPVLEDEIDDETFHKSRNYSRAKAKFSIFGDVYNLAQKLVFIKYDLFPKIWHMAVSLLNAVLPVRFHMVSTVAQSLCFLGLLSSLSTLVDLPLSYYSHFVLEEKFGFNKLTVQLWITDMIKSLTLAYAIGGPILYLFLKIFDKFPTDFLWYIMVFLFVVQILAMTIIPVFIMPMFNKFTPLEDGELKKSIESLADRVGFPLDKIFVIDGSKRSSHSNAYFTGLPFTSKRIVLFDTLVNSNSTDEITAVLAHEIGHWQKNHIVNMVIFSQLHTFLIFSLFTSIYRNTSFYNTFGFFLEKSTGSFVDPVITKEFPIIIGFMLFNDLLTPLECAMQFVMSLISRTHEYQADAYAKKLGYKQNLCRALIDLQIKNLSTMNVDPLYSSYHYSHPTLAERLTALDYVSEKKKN

[14] = target: T4, CAAX prenyl protease 2 (Saccharomyces cerevisiae S288c, UniProt Q03530); assay type: biochemical
T4 sequence (Q03530 whole entry): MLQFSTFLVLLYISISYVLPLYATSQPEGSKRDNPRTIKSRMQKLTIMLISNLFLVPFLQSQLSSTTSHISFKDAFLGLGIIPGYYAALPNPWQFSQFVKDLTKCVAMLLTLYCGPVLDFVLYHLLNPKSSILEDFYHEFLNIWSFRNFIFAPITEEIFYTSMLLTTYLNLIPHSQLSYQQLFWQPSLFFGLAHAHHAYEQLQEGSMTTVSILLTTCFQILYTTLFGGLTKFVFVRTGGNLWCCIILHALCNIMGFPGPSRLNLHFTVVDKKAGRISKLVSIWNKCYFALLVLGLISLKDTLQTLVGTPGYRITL

[15] = target: DNA repair and recombination protein RAD54-like (Homo sapiens, UniProt Q92698); experiment: inhibitors of human RAD54 branch migration, confirmation, biochemical, fluorescence, cherry-picked samples, dose series (AID 651657); assay type: functional
Chain of DNA repair and recombination protein RAD54-like (Q92698 whole entry): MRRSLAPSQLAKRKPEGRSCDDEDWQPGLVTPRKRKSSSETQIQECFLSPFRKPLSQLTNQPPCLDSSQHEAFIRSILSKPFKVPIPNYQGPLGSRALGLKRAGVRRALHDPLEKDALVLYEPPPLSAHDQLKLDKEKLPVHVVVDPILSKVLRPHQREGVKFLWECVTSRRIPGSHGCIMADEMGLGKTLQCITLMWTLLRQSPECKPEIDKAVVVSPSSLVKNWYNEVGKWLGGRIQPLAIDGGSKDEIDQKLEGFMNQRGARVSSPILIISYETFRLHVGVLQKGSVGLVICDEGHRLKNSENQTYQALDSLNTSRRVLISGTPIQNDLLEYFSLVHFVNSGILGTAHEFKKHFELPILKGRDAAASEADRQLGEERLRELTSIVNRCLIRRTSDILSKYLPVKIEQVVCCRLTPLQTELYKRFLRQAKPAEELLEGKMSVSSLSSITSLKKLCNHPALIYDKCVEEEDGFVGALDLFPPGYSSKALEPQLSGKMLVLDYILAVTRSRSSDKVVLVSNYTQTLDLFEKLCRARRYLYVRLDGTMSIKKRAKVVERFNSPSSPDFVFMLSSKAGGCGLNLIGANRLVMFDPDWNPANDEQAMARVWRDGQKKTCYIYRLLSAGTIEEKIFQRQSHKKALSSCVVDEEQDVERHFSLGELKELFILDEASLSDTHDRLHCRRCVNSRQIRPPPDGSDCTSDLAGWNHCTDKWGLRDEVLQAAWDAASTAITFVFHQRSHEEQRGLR

[16] = target: T5, Aryl hydrocarbon receptor (Homo sapiens, UniProt P35869); experiment: Luminescence-based cell-based high throughput dose response assay for activators of the Aryl Hydrocarbon Receptor (AHR). [Related pubchem assays: 2796 (Primary screen (AHR activators in singlicate)), 2845 (Confirmation screen (AHR activators in triplicate)), 434939 (Counterscreen (PXR activators in triplicate)), 2804 (Summary (AHR activators))]; assay type: ADME
T5 sequence (P35869 whole entry): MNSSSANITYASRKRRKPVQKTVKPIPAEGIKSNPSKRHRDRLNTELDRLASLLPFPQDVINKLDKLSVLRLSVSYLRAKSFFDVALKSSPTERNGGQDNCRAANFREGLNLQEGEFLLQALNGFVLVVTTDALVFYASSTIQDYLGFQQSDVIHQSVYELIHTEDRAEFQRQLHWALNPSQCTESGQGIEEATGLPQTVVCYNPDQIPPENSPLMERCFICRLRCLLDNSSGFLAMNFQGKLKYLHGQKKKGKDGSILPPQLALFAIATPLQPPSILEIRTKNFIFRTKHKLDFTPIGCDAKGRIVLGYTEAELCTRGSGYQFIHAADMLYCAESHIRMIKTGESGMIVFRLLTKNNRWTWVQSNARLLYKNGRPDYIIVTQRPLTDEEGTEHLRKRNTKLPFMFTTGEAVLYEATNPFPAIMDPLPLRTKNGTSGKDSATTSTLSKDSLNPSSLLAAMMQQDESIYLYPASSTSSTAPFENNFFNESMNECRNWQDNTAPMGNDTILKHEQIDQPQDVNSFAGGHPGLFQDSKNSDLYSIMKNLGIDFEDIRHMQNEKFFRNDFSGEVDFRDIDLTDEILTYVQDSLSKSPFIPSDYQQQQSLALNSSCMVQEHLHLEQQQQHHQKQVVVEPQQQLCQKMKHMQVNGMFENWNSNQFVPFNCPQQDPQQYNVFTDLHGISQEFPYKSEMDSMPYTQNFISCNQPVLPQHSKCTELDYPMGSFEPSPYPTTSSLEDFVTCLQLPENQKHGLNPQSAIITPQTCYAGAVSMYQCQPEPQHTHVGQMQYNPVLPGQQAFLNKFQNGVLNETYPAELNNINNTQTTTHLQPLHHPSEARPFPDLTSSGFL

[17] = test system: Streptococcus; experiment: Group A Streptococcus viability loss, dose response, counter-screen for streptokinase expression inhibitor project, luminescence, BacTiterGlo (AID 1915); assay type: functional, organism-based;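 note: potency for reduction of bacterial viability or growth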
[18] = test system: HEK293; experiment: NOD1 signaling inhibitors, primary screen, cell-based, luminescence, uHTS (AID 1578); assay type: functional; details: Homo sapiens
[19] = test system: HEK293; experiment: cells; assay type: functional, cell-based; details: Homo sapiens
[20] = test system: Streptococcus sp. 'group A'; experiment: growth inhibition of control SK(-) GAS strain, dose response, counter-screen for streptokinase expression inhibitor project, luminescence, kanamycin, BacTiterGlo, confirmation (AID 1900); assay type: functional, organism-based
[21] = test system: HEK293; experiment: cells; assay type: functional, cell-based; details: Homo sapiens; remark: listed apart in the source
[22] = test system: HEK293; experiment: cells; assay type: functional, cell-based; details: Homo sapiens; remark: listed apart in the source
[23] = target: T6, Streptokinase A (Streptococcus pyogenes serotype M1, UniProt P10520); experiment: S. pyogenes streptokinase expression inhibitors, potency, dose response, plasminogen activation absorbance, OD405 (AID 1914); assay type: functional, Streptococcus pyogenes M1 GAS;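 note: secreted streptokinase activity via plasminogen activation per viability signal from cell pellet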
T6 sequence (P10520 whole entry): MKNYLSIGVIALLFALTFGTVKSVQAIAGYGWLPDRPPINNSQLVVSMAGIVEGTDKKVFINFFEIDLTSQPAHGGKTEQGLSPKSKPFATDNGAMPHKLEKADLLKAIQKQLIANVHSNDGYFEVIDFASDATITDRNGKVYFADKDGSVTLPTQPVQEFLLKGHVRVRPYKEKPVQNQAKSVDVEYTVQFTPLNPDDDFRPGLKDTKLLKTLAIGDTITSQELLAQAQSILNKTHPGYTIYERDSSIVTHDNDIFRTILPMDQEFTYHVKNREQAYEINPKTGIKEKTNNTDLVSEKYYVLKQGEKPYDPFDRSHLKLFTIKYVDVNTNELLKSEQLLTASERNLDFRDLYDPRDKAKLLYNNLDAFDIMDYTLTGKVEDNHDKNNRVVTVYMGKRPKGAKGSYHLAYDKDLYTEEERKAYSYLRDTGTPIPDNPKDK

[24] = test system: HEK293; experiment: NOD2 signaling inhibitors in MDP-stimulated cells, cell-based, uHTS, luminescence (AID 2001); assay type: functional; details: Homo sapiens
[25] = target: Nucleotide-binding oligomerization domain-containing protein 2 (Homo sapiens, UniProt Q9HC29); experiment: NOD2 signaling inhibitors, cell-based, luminescence, uHTS, HEK293 (AID 1566); assay type: functional
Chain of Nucleotide-binding oligomerization domain-containing protein 2 (Q9HC29 whole entry, the tested form may be a part): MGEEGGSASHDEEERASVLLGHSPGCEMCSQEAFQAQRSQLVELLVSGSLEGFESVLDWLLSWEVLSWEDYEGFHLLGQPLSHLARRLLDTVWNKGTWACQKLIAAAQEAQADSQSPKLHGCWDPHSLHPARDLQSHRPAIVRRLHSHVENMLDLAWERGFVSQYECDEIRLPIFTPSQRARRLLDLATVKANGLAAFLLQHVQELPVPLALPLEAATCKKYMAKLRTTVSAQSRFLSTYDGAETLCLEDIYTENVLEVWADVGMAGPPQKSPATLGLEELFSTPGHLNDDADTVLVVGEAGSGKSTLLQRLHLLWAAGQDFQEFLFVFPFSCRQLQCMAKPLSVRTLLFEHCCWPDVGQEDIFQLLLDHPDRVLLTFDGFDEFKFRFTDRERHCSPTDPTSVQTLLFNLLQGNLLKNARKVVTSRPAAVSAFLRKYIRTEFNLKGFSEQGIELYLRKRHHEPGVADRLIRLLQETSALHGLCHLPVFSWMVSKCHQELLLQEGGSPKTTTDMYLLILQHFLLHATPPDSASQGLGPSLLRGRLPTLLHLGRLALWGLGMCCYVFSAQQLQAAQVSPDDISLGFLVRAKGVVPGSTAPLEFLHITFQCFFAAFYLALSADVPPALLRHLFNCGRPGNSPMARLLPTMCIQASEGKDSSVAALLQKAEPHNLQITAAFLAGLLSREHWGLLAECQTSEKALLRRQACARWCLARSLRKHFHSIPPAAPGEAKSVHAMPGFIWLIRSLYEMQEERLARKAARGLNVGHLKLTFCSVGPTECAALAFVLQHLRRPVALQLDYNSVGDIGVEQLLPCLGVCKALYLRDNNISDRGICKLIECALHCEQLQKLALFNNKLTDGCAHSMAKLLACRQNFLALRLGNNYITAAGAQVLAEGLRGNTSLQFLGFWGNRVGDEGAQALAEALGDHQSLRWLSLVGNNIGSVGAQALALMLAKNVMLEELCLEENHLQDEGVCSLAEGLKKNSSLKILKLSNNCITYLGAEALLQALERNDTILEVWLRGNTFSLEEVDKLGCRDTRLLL

O=C(Nc1sc2c(c1C(=O)c1ccc(Cl)cc1)CCCC2)c1cccnc1
EC50 [1]: 0.18 µM (active) | EC50 [2]: 28.2 µM (active) | EC50 [3]: 27.6 µM (inconclusive) | EC50 [4]: > 160 µM (inactive) | EC50 [5]: > 180 µM (inactive) | AC50 [6]: 24.3 µM (active) | IC50 [7]: > 100 µM (inactive)

CCc1ccc(C(CC(=O)c2ccc(Cl)cc2)C(=O)O)cc1 (stereo unspecified)
AC50 [8]: inconclusive | AC50 [9]: inconclusive | AC50 [10]: 0.00562 µM (inconclusive)

Cc1cc(C)c(S(=O)(=O)Nc2ccc(C(=O)O)cc2)cc1S(=O)(=O)Nc1ccc(C(=O)O)cc1
AC50 [11]: 423 µM (active)

OCCc1c[nH]c2cc(F)ccc12
AC50 [12]: 73.3 µM (active)

CN1CCN(CCCNC(=O)c2cc3c(-c4ccc(Cl)cc4)nn(C)c3s2)CC1
AC50 [13]: 6.07 µM (active) | AC50 [14]: 7.05 µM (active) | AC50 [15]: 33.6 µM (active) | EC50 [16]: 0.483 µM (active) | AC50 [6]: 15.8 µM (active)

CCCCCCc1cc2cc(C(=O)OCC)c(=O)oc2cc1O
EC50 [17]: > 150 µM (not active) | EC50 [18]: 5.81 µM (active) | IC50 [19]: 7.71 µM (active) | EC50 [20]: 10.8 µM (active) | IC50 [21]: 15.8 µM (active) | IC50 [22]: > 20 µM (inactive) | EC50 [23]: 12.8 µM (active) | IC50 [24]: 6.52 µM (inactive) | EC50 [25]: 12.6 µM (active)
